Data: US6753425B2, “Photographic processing composition containing bistriazinyl arylenediamine derivative” (Fuji Photo Film Co., Ltd., priority 2000, dated 2004)
Where two headings read alike, the source gives them in different places.

Key:
[1] = Stability against deposition of precipitates (visual judgement of the stored processing composition); type: physicochemical; set-up: key: the level of conspicuous precipitation was xx; the level of apparent precipitation was x; the level of slight precipitation was Δ; the level of no precipitation but clouding was ◯; the level of complete transparency with neither clouding nor precipitation was ◯◯
[2] = Solubility at the preparation of the additive composition for a fixing solution; type: physicochemical; settings: Example 5 additive composition, dissolution aid none
[3] = Example 1 concentrated color developing composition, 15 mmol added, glass bottle, 4 weeks at room temperature
[4] = Example 1 concentrated color developing composition, 15 mmol added, glass bottle, 4 weeks at −5° C.
[5] = Example 2 color developing composition with increased developing agent, 25 mmol added, 4 weeks at room temperature
[6] = Example 2 color developing composition with increased developing agent, 25 mmol added, 4 weeks at −5° C.
[7] = Example 3 fixing composition, 5 mmol added, 4 weeks at room temperature
[8] = Example 3 fixing composition, 5 mmol added, 4 weeks at −5° C.
[9] = Example 4 color developing composition for color negative film, 15 mmol added, 4 weeks at room temperature
[10] = Example 4 color developing composition for color negative film, 15 mmol added, 4 weeks at −5° C.
[11] = Example 5 additive composition, compound 70 mmol, dissolution aid none, −5° C.

SMILES	Evaluation of Deposition (room temperature) [1, 3]	Evaluation of Deposition (−5° C.) [1, 4]	Evaluation of Deposition (room temperature) [1, 5]	Evaluation of Deposition (−5° C.) [1, 6]	Evaluation of Deposition (room temperature) [1, 7]	Evaluation of Deposition (−5° C.) [1, 8]	Evaluation of Deposition (room temperature) [1, 9]	Evaluation of Deposition (−5° C.) [1, 10]	Evaluation of Deposition (−5° C.) [1, 11]	Solubility at the Preparation of Solution ([2]; compound 70 mmol)	Evaluation of Deposition (room temperature) [1]	Evaluation of Deposition (−5° C.) [1]	Evaluation of Deposition (−5° C.) ([1]; Example 5 additive composition, compound 140 mmol, dissolution aid none, −5° C.)	Solubility at the Preparation of Solution ([2]; compound 140 mmol)
O=S(=O)([O-])CCNc1nc(NCC(O)CO)nc(Nc2ccc(Nc3nc(NCCS(=O)(=O)[O-])nc(NCC(O)CO)n3)cc2)n1.[Na+].[Na+] (centres unmarked) [Compound A-2]	◯◯	◯◯	◯◯	◯◯	◯◯	◯◯	◯◯	◯◯	◯◯	Completely				
COc1cc(Nc2nc(NCCS(=O)(=O)[O-])nc(NCC(O)CO)n2)c(OC)cc1Nc1nc(NCCS(=O)(=O)[O-])nc(NCC(O)CO)n1.[Na+].[Na+] (centres unmarked) [Compound A-7]											◯◯	◯		
CC(CO)Nc1nc(NCC(O)CO)nc(Nc2cc(Nc3nc(NCC(O)CO)nc(NC(C)CO)n3)cc(S(=O)(=O)[O-])c2)n1.[Na+] (centres unmarked) [Compound A-23]											◯◯	◯◯ and ◯		
O=S(=O)([O-])CCNc1nc(NCC(O)CO)nc(Nc2cccc(Nc3nc(NCCS(=O)(=O)[O-])nc(NCC(O)CO)n3)c2)n1.[Na+].[Na+] (centres unmarked) [Compound A-3]	◯◯	◯◯	◯◯	◯◯	◯◯	◯◯	◯◯	◯◯	◯◯	Completely			◯◯	Completely
